Data taken from publication PMC8881512 (Nature Communications, 2022).
“And” between values parts separate entries of the source, which are not always exact repeats. Identical values can stand only once.

How the values were obtained:
[1] = system: VGLL3, ESR1, YAP/TAZ target and ERα target gene mRNA in MCF-7 cells; assay: qPCR gene expression in MCF-7 cells;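 on all read-outs here: SYBR Green real-time PCR, mRNA abundance computed by the ΔCt approach with GAPDH transcript as the internal normalisation control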; settings: MCF-7, 2 µM for 2 days; for ANKRD1 mRNA (qPCR, relative to DMSO) / LATS2 mRNA (qPCR, relative to DMSO) / VGLL3 mRNA (qPCR, relative to DMSO): sheet Fig.s7b (Supplementary Fig. 7c); for ESR1 mRNA (qPCR, relative to DMSO) / GREB1 mRNA (qPCR, relative to DMSO) / TFF1 mRNA (qPCR, relative to DMSO): sheet Fig.s7d (Supplementary Fig. 7e)
BTK = target: T1, BTK (Homo sapiens, UniProt Q06187); assay: Kinome profiling; format: biochemical; settings: VT02956 (5 nM)
T1 construct: LATS1/LATS2 enzymes from Signalchem
T1 sequence (Q06187 whole entry): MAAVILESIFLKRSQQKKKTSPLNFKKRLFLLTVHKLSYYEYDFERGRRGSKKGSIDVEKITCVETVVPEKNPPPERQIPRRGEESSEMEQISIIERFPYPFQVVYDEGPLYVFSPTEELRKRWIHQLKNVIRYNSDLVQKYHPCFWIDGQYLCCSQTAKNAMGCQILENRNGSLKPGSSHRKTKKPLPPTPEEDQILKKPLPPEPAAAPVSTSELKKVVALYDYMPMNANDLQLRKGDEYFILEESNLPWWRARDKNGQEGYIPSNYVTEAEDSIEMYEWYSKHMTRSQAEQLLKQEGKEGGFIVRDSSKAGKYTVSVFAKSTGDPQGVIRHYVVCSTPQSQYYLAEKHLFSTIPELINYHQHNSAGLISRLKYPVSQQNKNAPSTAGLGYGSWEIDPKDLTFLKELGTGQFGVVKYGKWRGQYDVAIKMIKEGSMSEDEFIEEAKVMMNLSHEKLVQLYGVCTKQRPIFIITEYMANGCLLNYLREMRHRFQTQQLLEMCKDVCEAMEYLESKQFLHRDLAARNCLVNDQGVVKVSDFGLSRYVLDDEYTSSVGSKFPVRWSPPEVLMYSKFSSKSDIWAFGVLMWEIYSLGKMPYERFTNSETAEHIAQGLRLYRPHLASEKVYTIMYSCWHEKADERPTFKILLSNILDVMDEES

TYK2 = target: T2, TYK2 (Homo sapiens, UniProt P29597); assay: Kinome profiling; format: biochemical; settings: VT02956 (5 nM)
T2 construct: LATS1/LATS2 enzymes from Signalchem
T2 sequence (P29597 whole entry): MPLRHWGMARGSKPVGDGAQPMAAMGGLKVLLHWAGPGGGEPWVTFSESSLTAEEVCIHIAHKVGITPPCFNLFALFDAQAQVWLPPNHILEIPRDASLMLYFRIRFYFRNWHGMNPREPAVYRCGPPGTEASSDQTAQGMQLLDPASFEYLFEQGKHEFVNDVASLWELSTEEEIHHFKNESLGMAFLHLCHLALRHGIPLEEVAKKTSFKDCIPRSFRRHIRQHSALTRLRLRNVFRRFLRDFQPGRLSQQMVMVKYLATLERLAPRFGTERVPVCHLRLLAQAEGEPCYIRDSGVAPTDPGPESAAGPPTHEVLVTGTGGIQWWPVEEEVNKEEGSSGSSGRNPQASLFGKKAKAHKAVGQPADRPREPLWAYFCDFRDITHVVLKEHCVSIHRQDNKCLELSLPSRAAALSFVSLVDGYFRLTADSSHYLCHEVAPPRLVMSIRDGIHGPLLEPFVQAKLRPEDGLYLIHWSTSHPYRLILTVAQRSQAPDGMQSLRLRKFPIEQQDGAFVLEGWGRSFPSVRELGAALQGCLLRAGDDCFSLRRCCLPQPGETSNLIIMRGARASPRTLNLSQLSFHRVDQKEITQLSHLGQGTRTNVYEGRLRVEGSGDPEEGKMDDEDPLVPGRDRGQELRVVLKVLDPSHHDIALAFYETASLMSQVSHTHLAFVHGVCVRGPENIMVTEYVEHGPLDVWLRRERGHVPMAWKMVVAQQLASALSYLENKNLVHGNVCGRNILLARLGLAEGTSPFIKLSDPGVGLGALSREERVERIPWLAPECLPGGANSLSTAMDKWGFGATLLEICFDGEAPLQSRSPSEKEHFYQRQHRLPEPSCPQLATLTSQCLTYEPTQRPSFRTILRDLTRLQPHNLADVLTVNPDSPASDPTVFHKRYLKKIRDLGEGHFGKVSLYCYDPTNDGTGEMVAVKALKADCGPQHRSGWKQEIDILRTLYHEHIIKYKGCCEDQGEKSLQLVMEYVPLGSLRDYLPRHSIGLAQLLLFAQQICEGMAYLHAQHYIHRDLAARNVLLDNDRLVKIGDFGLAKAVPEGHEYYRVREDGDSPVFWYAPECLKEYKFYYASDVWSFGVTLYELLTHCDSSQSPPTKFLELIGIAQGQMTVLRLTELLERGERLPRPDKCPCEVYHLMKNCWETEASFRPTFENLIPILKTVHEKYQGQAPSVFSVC

CAMKK1 = target: T3, CAMKK1 (Homo sapiens, UniProt Q8N5S9); assay: Kinome profiling; format: biochemical; settings: VT02956 (5 nM), read-out: % enzymatic activity relative to DMSO controls
T3 construct: LATS1/LATS2 enzymes from Signalchem
T3 sequence (Q8N5S9 whole entry): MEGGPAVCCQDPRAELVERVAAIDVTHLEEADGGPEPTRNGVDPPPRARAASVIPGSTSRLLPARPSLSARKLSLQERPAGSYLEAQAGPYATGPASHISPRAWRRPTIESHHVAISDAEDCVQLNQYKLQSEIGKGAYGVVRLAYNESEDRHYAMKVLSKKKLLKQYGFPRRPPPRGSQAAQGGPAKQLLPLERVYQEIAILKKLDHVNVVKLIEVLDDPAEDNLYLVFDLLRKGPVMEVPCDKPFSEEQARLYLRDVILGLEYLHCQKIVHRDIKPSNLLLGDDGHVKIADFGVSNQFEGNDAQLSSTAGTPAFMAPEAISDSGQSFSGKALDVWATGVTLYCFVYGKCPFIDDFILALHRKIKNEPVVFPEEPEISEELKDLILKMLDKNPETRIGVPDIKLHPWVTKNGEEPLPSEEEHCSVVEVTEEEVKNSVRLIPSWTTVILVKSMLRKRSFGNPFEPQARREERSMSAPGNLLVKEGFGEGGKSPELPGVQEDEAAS

T47D cells [2] = assay: Colony-formation assay, T47D (wild-type and ESR1 knock-in); format: cell-based; settings: 1 μM 4OHT, 0.2 μM Fulvestrant, 2 μM VT02956, 2 μM VT02484, 14 days, Fig.6h
Method: For colony formation, cells were plated into 12-well plate with a constant density at the start date of treatment in triplicate with the indicated compounds and further cultured for 10 days (MCF-7) or 14 days (T47D). The drugs were refreshed every 2–4 days. The colonies were then fixed with 4% paraformaldehyde for 15 min and stained with 0.1% crystal violet in 20% methanol solution for quantification.

WNK3 = target: T4, WNK3 (Homo sapiens, UniProt Q9BYP7); assay: Kinome profiling; format: biochemical; settings: VT02956 (5 nM), read-out: % enzymatic activity relative to DMSO controls
T4 construct: LATS1/LATS2 enzymes from Signalchem

T47D cells [3] = assay: Cell proliferation by cell counting, T47D; format: cell-based; settings: 0.5 µM or 2 µM, time course to 8 days; Supplementary Fig. 8c, d
Method: Cell proliferation rates were determined by automated cell counter. In brief, cells were plated at density of 0.1 million cells per well in six-well plate. Cell numbers were counted by the indicated time point as stated in the figure legends.

TXK = target: T5, TXK (Homo sapiens, UniProt P42681); assay: Kinome profiling; format: biochemical; settings: VT02956 (5 nM), read-out: % enzymatic activity relative to DMSO controls
T5 construct: LATS1/LATS2 enzymes from Signalchem
T5 sequence (P42681 whole entry): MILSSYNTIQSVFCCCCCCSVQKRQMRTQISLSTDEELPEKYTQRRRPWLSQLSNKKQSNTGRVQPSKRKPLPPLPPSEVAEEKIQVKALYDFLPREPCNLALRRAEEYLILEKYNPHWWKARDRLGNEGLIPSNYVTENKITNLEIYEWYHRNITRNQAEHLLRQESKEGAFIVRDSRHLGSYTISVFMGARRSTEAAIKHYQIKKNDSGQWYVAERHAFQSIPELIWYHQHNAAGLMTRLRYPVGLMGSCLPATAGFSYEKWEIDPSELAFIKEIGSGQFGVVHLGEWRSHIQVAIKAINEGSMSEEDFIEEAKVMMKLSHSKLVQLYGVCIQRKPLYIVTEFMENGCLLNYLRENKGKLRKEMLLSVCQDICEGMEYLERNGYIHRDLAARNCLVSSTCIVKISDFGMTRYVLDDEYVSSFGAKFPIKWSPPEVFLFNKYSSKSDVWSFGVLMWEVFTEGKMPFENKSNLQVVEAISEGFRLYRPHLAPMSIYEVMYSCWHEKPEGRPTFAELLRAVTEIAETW

PKN3/PRK3 = target: T6, PKN3/PRK3 (Homo sapiens, UniProt Q6P5Z2); assay: Kinome profiling; format: biochemical; settings: VT02956 (5 nM)
T6 construct: LATS1/LATS2 enzymes from Signalchem
T6 sequence (Q6P5Z2 whole entry): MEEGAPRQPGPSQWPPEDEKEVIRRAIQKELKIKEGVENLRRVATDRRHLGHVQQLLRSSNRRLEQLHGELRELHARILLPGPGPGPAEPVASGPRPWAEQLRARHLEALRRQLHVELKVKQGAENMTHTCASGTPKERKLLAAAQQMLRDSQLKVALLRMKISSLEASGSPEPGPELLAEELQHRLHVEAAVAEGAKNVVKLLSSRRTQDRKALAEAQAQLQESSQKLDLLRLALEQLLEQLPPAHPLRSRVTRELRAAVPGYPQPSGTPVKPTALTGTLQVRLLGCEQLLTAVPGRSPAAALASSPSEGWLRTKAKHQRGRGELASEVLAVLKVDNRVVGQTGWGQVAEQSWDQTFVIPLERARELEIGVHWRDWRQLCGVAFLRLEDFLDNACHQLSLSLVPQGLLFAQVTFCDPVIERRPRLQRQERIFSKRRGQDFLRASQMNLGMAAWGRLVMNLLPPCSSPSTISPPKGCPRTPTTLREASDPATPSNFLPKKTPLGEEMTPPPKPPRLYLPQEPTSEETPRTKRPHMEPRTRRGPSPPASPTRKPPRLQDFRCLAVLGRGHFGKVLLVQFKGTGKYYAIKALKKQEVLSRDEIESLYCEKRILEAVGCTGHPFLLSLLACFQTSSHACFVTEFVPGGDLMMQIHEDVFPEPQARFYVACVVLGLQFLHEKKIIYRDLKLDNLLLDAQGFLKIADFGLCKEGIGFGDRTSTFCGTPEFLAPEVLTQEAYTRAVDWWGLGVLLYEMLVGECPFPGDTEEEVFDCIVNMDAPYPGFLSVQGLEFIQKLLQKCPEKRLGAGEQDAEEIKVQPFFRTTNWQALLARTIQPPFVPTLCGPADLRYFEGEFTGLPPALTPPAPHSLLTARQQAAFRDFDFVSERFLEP

CK2a = target: T7, CK2a (Homo sapiens, UniProt P68400); assay: Kinome profiling; format: biochemical; settings: VT02956 (5 nM), read-out: % enzymatic activity relative to DMSO controls
T7 construct: LATS1/LATS2 enzymes from Signalchem

[4] = system: YAP/TAZ target, ESR1 and ERα target gene mRNA in BTO-02; assay: qPCR gene expression in breast tumour organoids BTO-02; format: cell-based, human; settings: BTO-02, 2 μM for 2 days; for ANKRD1 mRNA (qPCR, relative to DMSO) / CTGF mRNA (qPCR, relative to DMSO) / CYR61 mRNA (qPCR, relative to DMSO) / VGLL3 mRNA (qPCR, relative to DMSO): Fig.5g; for ESR1 mRNA (qPCR, relative to DMSO) / GREB1 mRNA (qPCR, relative to DMSO) / TFF1 mRNA (qPCR, relative to DMSO): Fig.5h;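 on all read-outs here: relative mRNA abundance computed by the ΔCt approach from SYBR-based real-time qPCR, with GAPDH as internal housekeeping reference for normalisation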
NEK11 = target: T8, NEK11 (Homo sapiens, UniProt Q8NG66); assay: Kinome profiling; format: biochemical; settings: VT02956 (5 nM), read-out: % enzymatic activity relative to DMSO controls
T8 construct: LATS1/LATS2 enzymes from Signalchem
T8 sequence (Q8NG66 whole entry): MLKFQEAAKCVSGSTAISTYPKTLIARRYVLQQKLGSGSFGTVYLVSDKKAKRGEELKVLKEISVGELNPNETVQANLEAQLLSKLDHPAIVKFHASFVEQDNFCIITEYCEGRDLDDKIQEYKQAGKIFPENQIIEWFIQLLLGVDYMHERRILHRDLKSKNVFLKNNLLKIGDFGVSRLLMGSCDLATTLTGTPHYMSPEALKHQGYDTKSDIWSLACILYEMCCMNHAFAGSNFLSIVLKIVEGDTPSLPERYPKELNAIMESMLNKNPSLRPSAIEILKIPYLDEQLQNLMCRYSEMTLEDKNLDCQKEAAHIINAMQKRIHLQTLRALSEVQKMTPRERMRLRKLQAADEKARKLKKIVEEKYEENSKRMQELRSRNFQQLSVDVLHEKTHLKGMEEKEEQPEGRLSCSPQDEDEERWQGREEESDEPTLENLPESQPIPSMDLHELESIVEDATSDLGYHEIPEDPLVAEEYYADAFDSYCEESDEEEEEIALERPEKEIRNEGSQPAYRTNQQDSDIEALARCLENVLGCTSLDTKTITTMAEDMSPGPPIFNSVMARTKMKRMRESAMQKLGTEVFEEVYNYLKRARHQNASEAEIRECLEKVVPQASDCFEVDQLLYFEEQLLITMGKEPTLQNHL

PKMYT1 = target: T9, PKMYT1 (Homo sapiens, UniProt Q99640); assay: Kinome profiling; format: biochemical; settings: VT02956 (5 nM)
T9 construct: LATS1/LATS2 enzymes from Signalchem
T9 sequence (Q99640 whole entry): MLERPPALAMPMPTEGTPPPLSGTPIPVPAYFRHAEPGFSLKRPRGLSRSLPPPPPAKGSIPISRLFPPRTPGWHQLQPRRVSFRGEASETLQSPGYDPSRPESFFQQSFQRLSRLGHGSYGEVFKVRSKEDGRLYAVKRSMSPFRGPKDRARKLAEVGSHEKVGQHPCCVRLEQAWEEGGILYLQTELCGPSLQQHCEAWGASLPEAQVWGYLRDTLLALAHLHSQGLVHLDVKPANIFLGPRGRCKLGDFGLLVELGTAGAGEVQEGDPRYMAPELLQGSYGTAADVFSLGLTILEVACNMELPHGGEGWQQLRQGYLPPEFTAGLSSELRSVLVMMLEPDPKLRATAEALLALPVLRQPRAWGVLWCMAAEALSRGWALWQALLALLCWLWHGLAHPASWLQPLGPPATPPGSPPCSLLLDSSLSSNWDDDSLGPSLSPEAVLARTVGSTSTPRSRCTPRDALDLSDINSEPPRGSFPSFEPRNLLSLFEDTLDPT

[5] = system: YAP target, ESR1 and ERα target gene mRNA in T47D cells; assay: qPCR gene expression in T47D cells; format: cell-based, human; settings: 2 µM for 2 days; for ANKRD1 mRNA (qPCR, relative to DMSO) / LATS2 mRNA (qPCR, relative to DMSO) / VGLL3 mRNA (qPCR, relative to DMSO): sheet Fig.s7c (Supplementary Fig. 7d); for ESR1 mRNA (qPCR, relative to DMSO) / GREB1 mRNA (qPCR, relative to DMSO) / TFF1 mRNA (qPCR, relative to DMSO): sheet Fig.s7e (Supplementary Fig. 7f)
From the text: PCR primer pairs included

MCF-7 cells = assay: Colony-formation assay, MCF-7 (wild-type and ESR1 knock-in); format: cell-based, human; settings: for Rel. colony (colony-formation assay): MCF-7, VT02956 (2 μM), VT02484 (2 μM) or Palbociclib (0.1 μM) alone or in combinations, Fig.6d; for Relative colony formation: 1 μM 4OHT, 0.2 μM Fulvestrant, 2 μM VT02956, 2 μM VT02484, Fig.6g
Method: […] The drugs were refreshed every 2–4 days. The colonies were then fixed with 4% paraformaldehyde for 15 min and stained with 0.1% crystal violet in 20% methanol solution for quantification.

LATS1 = target: T10, LATS1 (Homo sapiens, UniProt O95835); assay: Kinome profiling; format: biochemical; settings: VT02956 (5 nM)
T10 construct: purchased Signalchem
T10 sequence (O95835 1-1130): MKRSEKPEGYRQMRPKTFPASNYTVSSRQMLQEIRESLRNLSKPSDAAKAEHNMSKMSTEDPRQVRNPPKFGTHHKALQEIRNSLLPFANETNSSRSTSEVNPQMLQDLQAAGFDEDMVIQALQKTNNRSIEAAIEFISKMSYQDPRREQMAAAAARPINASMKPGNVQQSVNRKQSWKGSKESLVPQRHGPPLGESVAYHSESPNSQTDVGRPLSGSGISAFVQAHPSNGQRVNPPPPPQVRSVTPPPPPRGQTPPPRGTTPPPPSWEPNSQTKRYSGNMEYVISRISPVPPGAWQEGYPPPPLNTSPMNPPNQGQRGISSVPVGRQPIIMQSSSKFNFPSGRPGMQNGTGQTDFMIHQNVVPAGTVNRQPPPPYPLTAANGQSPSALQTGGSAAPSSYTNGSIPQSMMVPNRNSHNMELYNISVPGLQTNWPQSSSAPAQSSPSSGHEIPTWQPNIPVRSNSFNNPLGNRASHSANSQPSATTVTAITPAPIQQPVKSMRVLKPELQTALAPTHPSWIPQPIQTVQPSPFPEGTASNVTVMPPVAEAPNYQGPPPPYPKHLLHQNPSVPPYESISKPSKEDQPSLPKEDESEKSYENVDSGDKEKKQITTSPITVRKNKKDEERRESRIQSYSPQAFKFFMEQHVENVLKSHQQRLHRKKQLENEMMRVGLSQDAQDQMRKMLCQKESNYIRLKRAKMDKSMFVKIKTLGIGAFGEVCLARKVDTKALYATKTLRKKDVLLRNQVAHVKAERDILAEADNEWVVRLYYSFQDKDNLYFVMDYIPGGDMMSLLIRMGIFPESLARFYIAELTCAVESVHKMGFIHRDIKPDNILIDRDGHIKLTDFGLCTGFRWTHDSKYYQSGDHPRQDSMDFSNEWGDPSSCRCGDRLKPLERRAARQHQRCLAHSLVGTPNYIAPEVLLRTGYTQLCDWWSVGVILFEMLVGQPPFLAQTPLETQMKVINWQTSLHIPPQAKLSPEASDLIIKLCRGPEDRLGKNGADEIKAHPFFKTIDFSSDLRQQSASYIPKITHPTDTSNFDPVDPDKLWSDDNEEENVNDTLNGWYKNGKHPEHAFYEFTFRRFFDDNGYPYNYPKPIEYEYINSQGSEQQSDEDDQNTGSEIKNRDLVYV

Compound	ANKRD1 mRNA (qPCR, relative to DMSO) [1]	LATS2 mRNA (qPCR, relative to DMSO) [1]	VGLL3 mRNA (qPCR, relative to DMSO) [1]	ESR1 mRNA (qPCR, relative to DMSO) [1]	GREB1 mRNA (qPCR, relative to DMSO) [1]	TFF1 mRNA (qPCR, relative to DMSO) [1]	Relative colony formation (T47D cells [2]; T47D ERa Y537S knock-in)	Relative colony formation (T47D cells [2]; T47D WT)	ANKRD1 mRNA (qPCR, relative to DMSO) [4]	CTGF mRNA (qPCR, relative to DMSO) [4]	CYR61 mRNA (qPCR, relative to DMSO) [4]	VGLL3 mRNA (qPCR, relative to DMSO) [4]	ESR1 mRNA (qPCR, relative to DMSO) [4]	GREB1 mRNA (qPCR, relative to DMSO) [4]	TFF1 mRNA (qPCR, relative to DMSO) [4]	ANKRD1 mRNA (qPCR, relative to DMSO) [5]	LATS2 mRNA (qPCR, relative to DMSO) [5]	VGLL3 mRNA (qPCR, relative to DMSO) [5]	ESR1 mRNA (qPCR, relative to DMSO) [5]	GREB1 mRNA (qPCR, relative to DMSO) [5]	further results
NCC1CCN(c2nc(-c3ccncc3)nc3c(C#CCO)cccc23)CC1 [VT02956]	39.7272 and 41.5085 and 42.3168	3.381 and 2.554 and 3.922	57.2973 and 54.8732 and 38.032	0.1783 and 0.1761 and 0.1829	0.3188 and 0.332 and 0.2804	0.2697 and 0.3023 and 0.214	0.41 and 0.42 and 0.48	0.39 and 0.48 and 0.51	120.896 and 131.016 and 139.426	10.8797 and 10.8657 and 10.8616	13.1424 and 13.7264 and 12.9668	31.437 and 32.235 and 31.533	0.1649 and 0.1855 and 0.1729	0.3079 and 0.3261 and 0.3014	0.0863 and 0.0862 and 0.094	151.05 and 152.548 and 126.932	2.078 and 1.8081 and 2.057	25.7059 and 26.0713 and 24.6224	0.1433 and 0.1061 and 0.1464	0.2102 and 0.1984 and 0.2087	% enzymatic activity relative to DMSO controls (BTK): 83%; % enzymatic activity relative to DMSO controls (TYK2): 78%; remaining activity at 0.005 µM (CAMKK1): 83%; remaining activity at 0.005 µM (WNK3): 82%; T47D proliferation (T47D cells [3]): inhibited the proliferation of MCF-7 and T47D cells; remaining activity at 0.005 µM (TXK): 83%; % enzymatic activity relative to DMSO controls (PKN3/PRK3): 64%; remaining activity at 0.005 µM (CK2a): 85%; remaining activity at 0.005 µM (NEK11): 82%; % enzymatic activity relative to DMSO controls (PKMYT1): 77%; TFF1 mRNA (qPCR, relative to DMSO) [5]: 0.06716 and 0.07329 and 0.06992; Rel. colony (colony-formation assay) (MCF-7 cells): 0.41 and 0.36 and 0.33; Relative colony formation (MCF-7 cells; MCF-7 ERa D538G knock-in): 0.39 and 0.37 and 0.34; Relative colony formation (MCF-7 cells; MCF-7 ERa Y537S knock-in): 0.41 and 0.42 and 0.45; Relative colony formation (MCF-7 cells; MCF-7 WT): 0.32 and 0.27 and 0.35; % enzymatic activity relative to DMSO controls (LATS1): 22%
CCN(CC)c1nc(-c2ccncc2)nc2c(-c3ccc(Cl)cc3)cccc12 [VT02484]	0.9375 and 1.0569 and 0.9783	1.073 and 0.8452 and 1.234	1.127 and 1.023 and 0.9343	0.9424 and 1.008 and 0.8622	1.01 and 0.9864 and 0.9917	1.063 and 1.169 and 0.8376	0.96 and 0.91 and 1.03	1.12 and 0.89 and 0.98	1.2497 and 1.0358 and 0.9991	1.029 and 0.9638 and 0.9395	1.1798 and 0.914 and 0.9308	1.193 and 1.051 and 1.05	1.0519 and 1.0384 and 1.0263	1.1915 and 1.2181 and 1.0643	1.1521 and 1.0774 and 1.1271	0.9511 and 0.8877 and 0.7788	1.062 and 1.257 and 1.047	1.036 and 0.9545 and 1.103	1.074 and 0.8288 and 1.02	1.002 and 1.049 and 0.9359	TFF1 mRNA (qPCR, relative to DMSO) [5]: 1.09 and 1.077 and 1.0923; Rel. colony (colony-formation assay) (MCF-7 cells): 0.94 and 1.05 and 1.08; Relative colony formation (MCF-7 cells; MCF-7 ERa D538G knock-in): 1.12 and 1.04 and 1.03; Relative colony formation (MCF-7 cells; MCF-7 ERa Y537S knock-in): 0.96 and 0.91 and 1.03; Relative colony formation (MCF-7 cells; MCF-7 WT): 0.96 and 0.89 and 1.02
